# Experimental data from patent US9302999B2, “Substituted triazoles as herbicides” (E. I. DU PONT DE NEMOURS AND COMPANY, priority 2012, dated 2016).
# Tests used:
# Type in all cases: in vivo
# [1] = test system: nightshade (eastern black nightshade, Solanum ptycanthum); test: Test C pre-/postemergence: nightshade; conditions: Preemergence
# Description: Seeds of plant species selected from blackgrass (Alopecurus myosuroides), bromegrass, downy (downy bromegrass, Bromus tectorum), foxtail, green (green foxtail, Setaria viridis), ryegrass, Italian (Italian ryegrass, Lolium multiflorum), winter wheat (Triticum aestivum), wild oat (Avena fatua), galium (catchweed bedstraw, Galium aparine), bermudagrass (Cynodon dactylon), surinam grass (Brachiaria decumbens), cocklebur (common cocklebur, Xanthium strumarium), corn (Zea mays), large crabgrass (Digitaria sanguinalis), woolly cupgrass (Eriochloa villosa), foxtail, giant (giant foxtail, Setaria faberii), goosegrass (Eleusine indica), johnsongrass (Sorghum halepense), kochia (Kochia scoparia), lambsquarters (Chenopodium album), morningglory (Ipomoea coccinea), nightshade (eastern black nightshade, Solanum ptycanthum), nutsedge, yellow (yellow nutsedge, Cyperus esculentus), pigweed (Amaranthus retroflexus), ragweed (common ragweed, Ambrosia elation), soybean (Glycine max), common (oilseed) sunflower (Helianthus annuus), Russian thistle (Salsola kali) and velvetleaf (Abutilon theophrasti) were planted into a blend of loam soil and sand and treated preemergence with test chemicals formulated in a non-phytotoxic solvent mixture which included a surfactant.
# At the same time, plants selected from these crop and weed species and also barley (winter barley, Hordeum vulgare), canarygrass (Phalaris minor), chickweed (common chickweed, Stellaria media) windgrass (Apera spica-venti) and deadnettle (henbit deadnettle, Lamium amplexicaule) were planted in pots containing Redi-Earth® planting medium (Scotts Company, 14111 Scottslawn Road, Marysville, Ohio 43041) comprising spaghnum peat moss, vermiculite, wetting agent and starter nutrients and treated with postemergence applications of test chemicals formulated in the same manner. Plants ranged in height from 2 to 18 cm (1- to 4-leaf stage) for postemergence treatments.
# Treated plants and controls were maintained in a greenhouse for 13 to 15 days, after which time all species were compared to controls and visually evaluated. Plant response ratings, summarized in Table C, are based on a scale of 0 to 100 where 0 is no effect and 100 is complete control. A dash (-) response means no test result.
# [2] = test system: sedge, umbrella (small-flower umbrella sedge, Cyperus difformis); test: Test C flooded paddy test: sedge, umbrella; conditions: Cyperus difformis, scale 0 to 100 (0 no effect, 100 complete control), read-out: Plant response rating, Sedge, Umbrella
# Summary of the method: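 Plants at 2-leaf stage in pots flooded 3 cm above soil; compounds applied directly into the paddy water, depth maintained. Visual rating against controls after 13–15 days in greenhouse, scale 0 (no effect) to 100 (complete control).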
# [3] = test system: field poppy (Papaver rhoeas); test: Test D pre-/postemergence: field poppy
# Description: Seeds of plant species selected from bluegrass (annual bluegrass, Poa annua), blackgrass (Alopecurus myosuroides), canarygrass (Phalaris minor), chickweed (common chickweed, Stellaria media), galium (catchweed bedstraw, Galium aparine), bromegrass, downy (downy bromegrass, Bromus tectorum), field poppy (Papaver rhoeas), field violet (Viola arvensis), foxtail, green (green foxtail, Setaria viridis), deadnettle (henbit deadnettle, Lamium amplexicaule), ryegrass, Italian (Italian ryegrass, Lolium multiflorum), kochia (Kochia scoparia), lambsquarters (Chenopodium album), oilseed rape (Brassica napus), pigweed (Amaranthus retroflexus), Russian thistle (Salsola iberica), chamomile (scentless chamomile, Matricaria inodora), speedwell (bird's-eye speedwell, Veronica persica), barley, spring (spring barley, Hordeum vulgare), wheat, spring (spring wheat, Triticum aestivum), buckwheat, wild (wild buckwheat, Polygonum convolvulus), mustard, wild (wild mustard, Sinapis arvensis), oat, wild (wild oat, Avena fatua), radish, wild (wild radish, Raphanus raphanistrum), windgrass (Apera spica-venti), barley, winter (winter barley, Hordeum vulgare), and wheat, winter (winter wheat, Triticum aestivum) were planted into a silt loam soil and treated preemergence with test chemicals formulated in a non-phytotoxic solvent mixture which included a surfactant. At the same time, these same crop and weed species were planted in pots containing the planting medium comprising spaghnum peat moss, vermiculite, wetting agent and starter nutrients and treated with postemergence applications of the test chemicals formulated in the same manner. Plants ranged in height from 2 to 18 cm (1- to 4-leaf stage).
# Treated plants and controls were maintained in a controlled growth environment for 14 to 21 days after which time all species were compared to controls and visually evaluated. Plant response ratings, summarized in Table D, are based on a scale of 0 to 100 where 0 is no effect and 100 is complete control. A dash (-) response means no test result.
# [4] = test system: foxtail, green (green foxtail, Setaria viridis); test: Test D pre-/postemergence: foxtail, green
# Summary of the method: (§1)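 Visual 0–100 rating versus untreated controls (0 no effect, 100 complete control), taken 14 to 21 days after treatment in a controlled growth environment. Preemergence: silt loam soil. Postemergence: peat moss/vermiculite medium, plants 2 to 18 cm, 1- to 4-leaf stage. Solvent mixture with surfactant.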
# kochia (Kochia scoparia) = test: Test D pre-/postemergence: kochia
# Summary of the method: as §1
# [5] = test system: oat, wild (wild oat, Avena fatua); test: Test D pre-/postemergence: oat, wild
# Summary of the method: as §1
# [6] = test system: sedge, umbrella (small-flower umbrella sedge Cyperus difformis); test: Test B flooded paddy: sedge, umbrella; conditions: Flood; 250 g ai/ha; applied to paddy water at 2-leaf stage; visually evaluated after 13 to 15 days
# Summary of the method: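 Paddy-water application: seedlings at 2-leaf stage, flood depth 3 cm maintained for the test duration. Evaluation after 13–15 days in the greenhouse by eye relative to controls; 0–100 scale.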
# [7] = 31 g ai/ha, scale of 0 to 100, 0 is no effect, 100 is complete control
# [8] = 62 g ai/ha, scale of 0 to 100, 0 is no effect, 100 is complete control
# [9] = 125 g ai/ha, scale 0 to 100, 0 no effect, 100 complete control
# [10] = 250 g ai/ha, scale 0 to 100, 0 no effect, 100 complete control
# [11] = Postemergence, 31 g ai/ha, scale 0 to 100 (0 no effect, 100 complete control)
# [12] = Postemergence, 62 g ai/ha, scale 0 to 100 (0 no effect, 100 complete control)
# [13] = Postemergence, 125 g ai/ha, scale 0 to 100, 0 no effect, 100 complete control
# [14] = Postemergence, 250 g ai/ha, scale 0 to 100 (0 no effect, 100 complete control)
# [15] = Postemergence, 16 g ai/ha, scale 0 to 100
# [16] = Preemergence, 16 g ai/ha, scale 0 to 100 (0 no effect, 100 complete control)
# [17] = Preemergence, 31 g ai/ha, scale 0 to 100 (0 no effect, 100 complete control)
# [18] = Preemergence, 62 g ai/ha, scale 0 to 100
# [19] = Preemergence, 125 g ai/ha, scale 0 to 100
# [20] = Preemergence, 250 g ai/ha, scale 0 to 100
# [21] = Postemergence, 8 g ai/ha, scale 0 to 100
smiles,measurement,setting,value
"Cc1nn(-c2ccc(F)cc2)nc1Oc1ccnc(C(F)(F)F)c1 [Compound 129, 4-[[2-(4-fluorophenyl)-5-methyl-2H-1,2,3-triazol-4-yl]oxy]-2-(trifluoromethyl)pyridine]","Plant response rating, Nightshade",[1]; [7],85
same,"Plant response rating, Nightshade",[1]; [8],90
same,"Plant response rating, Nightshade",[1]; [9],90
same,"Plant response rating, Nightshade",[1]; [10],95
same,pest or weed control at 125 g/ha,"[2]; Flood (flooded paddy test), 125 g ai/ha, visual rating after 13 to 15 days",85%
same,pest or weed control at 250 g/ha,"[2]; Flood (flooded paddy test), 250 g ai/ha, visual rating after 13 to 15 days",95%
same,pest or weed control at 31 g/ha,"[2]; Flood, 31 g ai/ha",75%
same,pest or weed control at 62 g/ha,"[2]; Flood, 62 g ai/ha",75%
same,Plant response rating: Field Poppy,[3]; [11],100
same,Plant response rating: Field Poppy,[3]; [12],100
same,Plant response rating: Field Poppy,[3]; [13],100
same,Plant response rating: Field Poppy,[3]; [14],85
same,"Plant response rating, Field Poppy",[3]; [15],100
same,"Plant response rating, Field Poppy",[3]; [16],0
same,"Plant response rating, Field Poppy",[3]; [17],75
same,"Plant response rating, Field Poppy",[3]; [18],70
same,"Plant response rating, Field Poppy",[3]; [19],100
same,"Plant response rating, Field Poppy",[3]; [20],100
same,"Plant response rating: Foxtail, Green",[4]; [11],35
same,"Plant response rating: Foxtail, Green",[4]; [12],85
same,"Plant response rating: Foxtail, Green",[4]; [13],95
same,"Plant response rating: Foxtail, Green",[4]; [14],100
same,"Plant response rating, Foxtail, Green",[4]; [15],35
same,"Plant response rating, Foxtail, Green",[4]; [16],5
same,"Plant response rating, Foxtail, Green",[4]; [17],90
same,"Plant response rating, Foxtail, Green",[4]; [18],100
same,"Plant response rating, Foxtail, Green",[4]; [19],100
same,"Plant response rating, Foxtail, Green",[4]; [20],100
same,Plant response rating: Kochia,kochia (Kochia scoparia); [11],98
same,Plant response rating: Kochia,kochia (Kochia scoparia); [12],100
same,Plant response rating: Kochia,kochia (Kochia scoparia); [13],100
same,Plant response rating: Kochia,kochia (Kochia scoparia); [14],100
same,"Plant response rating, Kochia",kochia (Kochia scoparia); [15],98
same,"Plant response rating, Kochia",kochia (Kochia scoparia); [16],20
same,"Plant response rating, Kochia",kochia (Kochia scoparia); [17],25
same,"Plant response rating, Kochia",kochia (Kochia scoparia); [18],75
same,"Plant response rating, Kochia",kochia (Kochia scoparia); [19],100
same,"Plant response rating, Kochia",kochia (Kochia scoparia); [20],100
same,"Plant response rating: Oat, Wild",[5]; [11],10
same,"Plant response rating: Oat, Wild",[5]; [12],10
same,"Plant response rating: Oat, Wild",[5]; [13],20
same,"Plant response rating: Oat, Wild",[5]; [14],25
same,"Plant response rating, Oat, Wild",[5]; [15],10
same,"Plant response rating, Oat, Wild",[5]; [16],0
same,"Plant response rating, Oat, Wild",[5]; [17],0
same,"Plant response rating, Oat, Wild",[5]; [18],5
same,"Plant response rating, Oat, Wild",[5]; [19],55
same,"Plant response rating, Oat, Wild",[5]; [20],100
Fc1ccc(-n2nc(Cc3ccnc(C(F)(F)F)c3)c(OCC(F)(F)F)n2)cc1 [Compound 142],"Plant response rating, Sedge, Umbrella (0 to 100 scale, 0 is no effect, 100 is complete control)",[6],90
same,"Plant response rating, Nightshade",[1]; [7],95
same,"Plant response rating, Nightshade",[1]; [8],95
same,"Plant response rating, Nightshade",[1]; [9],98
same,"Plant response rating, Nightshade",[1]; [10],98
Cc1nn(-c2ccc(F)c(F)c2)nc1Oc1ccnc(C(F)(F)F)c1 [Compound 145],"Plant response rating, Sedge, Umbrella (0 to 100 scale, 0 is no effect, 100 is complete control)",[6],85
same,"Plant response rating, Nightshade",[1]; [7],35
same,"Plant response rating, Nightshade",[1]; [8],80
same,"Plant response rating, Nightshade",[1]; [9],85
same,"Plant response rating, Nightshade",[1]; [10],90
same,Plant response rating: Field Poppy,[3]; [11],100
same,Plant response rating: Field Poppy,[3]; [12],100
same,Plant response rating: Field Poppy,[3]; [13],100
same,"Plant response rating, Field Poppy",[3]; [21],25
same,"Plant response rating, Field Poppy",[3]; [15],75
same,"Plant response rating: Foxtail, Green",[4]; [11],60
same,"Plant response rating: Foxtail, Green",[4]; [12],100
same,"Plant response rating: Foxtail, Green",[4]; [13],100
same,"Plant response rating, Foxtail, Green",[4]; [21],5
same,"Plant response rating, Foxtail, Green",[4]; [15],5
same,Plant response rating: Kochia,kochia (Kochia scoparia); [11],98
same,Plant response rating: Kochia,kochia (Kochia scoparia); [12],100
same,Plant response rating: Kochia,kochia (Kochia scoparia); [13],100
same,"Plant response rating, Kochia",kochia (Kochia scoparia); [21],80
same,"Plant response rating, Kochia",kochia (Kochia scoparia); [15],90
same,"Plant response rating: Oat, Wild",[5]; [11],20
same,"Plant response rating: Oat, Wild",[5]; [12],30
same,"Plant response rating: Oat, Wild",[5]; [13],35
same,"Plant response rating, Oat, Wild",[5]; [21],10
same,"Plant response rating, Oat, Wild",[5]; [15],10
